Values after ≈ are worked out from the molar mass of the structure shown. Active and inactive are the calls of the source. No cut-off for these calls is given here.
Tests used:
[1] = test system: Streptococcus pneumoniae; test: Antimicrobial activity against Streptococcus pneumoniae Spn-058 infected in one-compartment pharmacodynamic system assessed as decrease in bacterial population administered at simulated at 750 mg dosage regimen every 12 hrs for 10 days by quantitative culture assay; type: functional, organism-based
[2] = test system: Streptococcus pneumoniae; test: Antimicrobial activity against Streptococcus pneumoniae Spn-058 infected in one-compartment pharmacodynamic system assessed as reduction in bacterial density administered at simulated at 500 mg QD dosage regimen measured on day 1; type: functional, organism-based
[3] = test system: Streptococcus pneumoniae; test: Antimicrobial activity against Streptococcus pneumoniae Spn-058 infected in one-compartment pharmacodynamic system assessed as regrowth of bacteria administered at simulated at 500 mg QD dosage regimen measured on day 6; type: functional, organism-based
[4] = test system: Streptococcus pneumoniae; test: Antimicrobial activity against Streptococcus pneumoniae Spn-RC2 infected in one-compartment pharmacodynamic system assessed as regrowth of bacteria administered at simulated at 750 mg dosage regimen every 12 hrs measured on day 3; type: functional, organism-based
[5] = Stability assessed as degradation half life; type: physicochemical
[6] = test system: Streptococcus pneumoniae; test: Antimicrobial activity against Streptococcus pneumoniae Spn-058 by broth macrodilution technique in presence of 5% lysed horse blood; type: functional
[7] = Free AUC (0 to 24 hrs) in one-compartment pharmacodynamic system administered at simulated oral dose regimen of 500 mg in human for 10 days; type: ADME
[8] = Half life in one-compartment pharmacodynamic system administered at simulated oral dose regimen of 500 mg in human for 10 days; type: ADME, organism-based
[9] = test system: Streptococcus pneumoniae; test: Antimicrobial activity against Streptococcus pneumoniae Spn-RC2 infected in one-compartment pharmacodynamic system assessed as decrease in bacterial population administered at simulated oral dose regimen of 500 mg in human for 10 days by quantitative culture assay; type: functional, organism-based
[10] = test system: Streptococcus pneumoniae; test: Antimicrobial activity against Streptococcus pneumoniae Spn-058 infected in one-compartment pharmacodynamic system assessed as reduction in bacterial density administered at simulated oral dose regimen of 750 mg in human every 12 hrs measured on day 1; type: functional, organism-based
[11] = test system: Streptococcus pneumoniae; test: Antimicrobial activity against Streptococcus pneumoniae Spn-058 infected in one-compartment pharmacodynamic system assessed as regrowth of bacteria administered at simulated oral dose regimen of 750 mg in human every 12 hrs measured on day 2; type: functional, organism-based
[12] = test system: Streptococcus pneumoniae; test: Antimicrobial activity against Streptococcus pneumoniae Spn-058 infected in one-compartment pharmacodynamic system assessed as prevention of regrowth administered ciprofloxacin at simulated oral dose regimen of 750 mg in human every 12 hrs measured on day 10; type: functional, organism-based
[13] = test system: Streptococcus pneumoniae; test: Antimicrobial activity against Streptococcus pneumoniae Spn-RC2 by broth macrodilution technique
[14] = test system: Streptococcus pneumoniae; test: Inhibition of efflux pump in Streptococcus pneumoniae Spn-058 with harboring Ser79Tyr mutation in parC gene assessed as decrease in ciprofloxacin MIC
[15] = test system: Streptococcus pneumoniae; test: Inhibition of efflux pump in Streptococcus pneumoniae Spn-058 with harboring mutation in parC gene assessed as decrease in levofloxacin MIC
[16] = test system: Streptococcus pneumoniae; test: Inhibition of efflux pump in Streptococcus pneumoniae Spn-058 harboring mutation in parC and […] gene assessed as decrease in ciprofloxacin MIC
[17] = test system: Streptococcus pneumoniae; test: Antimicrobial activity against Streptococcus pneumoniae Spn-058 assessed as bacterial load; type: functional, organism-based
[18] = test system: Streptococcus pneumoniae; test: Antimicrobial activity against Streptococcus pneumoniae Spn-RC2 infected in one-compartment pharmacodynamic system assessed as decrease in bacterial density administered at simulated at 500 mg QD dosage regimen for 10 days measured after 24 hrs by quantitative culture assay; type: functional, organism-based
[19] = test system: Streptococcus pneumoniae; test: Inhibition of efflux pump in Streptococcus pneumoniae Spn-058 assessed as ethidium bromide uptake at 20 ug/ml
[20] = test system: Streptococcus pneumoniae; test: Inhibition of efflux pump in Streptococcus pneumoniae Spn-RC2 assessed as ethidium bromide uptake at 20 ug/ml
[21] = test system: Streptococcus pneumoniae; test: Induction of efflux pump expression in Streptococcus pneumoniae Spn-058 harboring mutation in gyrA gene at 20 ug/ml
[22] = test system: Streptococcus pneumoniae; test: Inhibition of efflux pump in Streptococcus pneumoniae Spn-RC2 assessed as reduction in ciprofloxacin MIC at 20 ug/ml by broth microdilution method
[23] = test system: Streptococcus pneumoniae; test: Inhibition of efflux pump in Streptococcus pneumoniae Spn-RC2 assessed as reduction in levofloxacin at 20 ug/ml MIC by broth microdilution method
[24] = test system: Streptococcus pneumoniae; test: Inhibition of efflux pump in Streptococcus pneumoniae Spn-RC2 assessed as reduction in ciprofloxacin MIC by agar microdilution method
[25] = test system: Streptococcus pneumoniae; test: Inhibition of efflux pump in Streptococcus pneumoniae Spn-RC2 assessed as reduction in levofloxacin MIC by agar microdilution method
[26] = test system: Streptococcus pneumoniae; test: Induction of efflux pump expression in Streptococcus pneumoniae Spn-058 after 5 hrs by ethidium bromide uptake assay
[27] = test system: Streptococcus pneumoniae; test: Inhibition of efflux pump in Streptococcus pneumoniae Spn-058 assessed as change in levofloxacin MIC at 20 ug/ml by broth macrodilution method
[28] = test system: Streptococcus pneumoniae; test: Inhibition of efflux pump in Streptococcus pneumoniae Spn-058 assessed as change in ciprofloxacin MIC at 20 ug/ml by broth macrodilution method
[29] = test system: Streptococcus pneumoniae; test: Inhibition of efflux pump in Streptococcus pneumoniae Spn-058 assessed as change in levofloxacin MIC by agar dilution method
[30] = test system: Streptococcus pneumoniae; test: Inhibition of efflux pump in Streptococcus pneumoniae Spn-058 assessed as change in ciprofloxacin MIC by agar dilution method
[31] = test system: Streptococcus pneumoniae; test: Inhibition of efflux pump in Streptococcus pneumoniae Spn-RC2 assessed as change in levofloxacin MIC by agar dilution method
[32] = test system: Streptococcus pneumoniae; test: Inhibition of efflux pump in Streptococcus pneumoniae Spn-RC2 assessed as change in ciprofloxacin MIC by agar dilution method
[33] = test system: Streptococcus pneumoniae; test: Inhibition of efflux pump in Streptococcus pneumoniae Spn-058 infected in one-compartment pharmacodynamic system assessed as repid killing administered levofloxacin at simulated oral dose regimen of 500 mg in human measured on day 6
[34] = test system: Streptococcus pneumoniae; test: Inhibition of efflux pump in Streptococcus pneumoniae Spn-058 infected in one-compartment pharmacodynamic system assessed as repid killing administered levofloxacin at simulated oral dose regimen of 750 mg in human every 12 hrs measured on day 6
[35] = test system: Streptococcus pneumoniae; test: Inhibition of efflux pump in Streptococcus pneumoniae Spn-058 infected in one-compartment pharmacodynamic system assessed as repid killing administered levofloxacin at simulated oral dose regimen of 750 mg in human every 24 hrs measured on day 10
[36] = test system: Streptococcus pneumoniae; test: Antimicrobial activity against Streptococcus pneumoniae Spn-RC2 infected in one-compartment pharmacodynamic system assessed as regrowth of bacteria administered at simulated at 750 mg dosage regimen every 12 hrs measured on day 8; type: functional, organism-based
[37] = test system: Streptococcus pneumoniae; test: Inhibition of ciprofloxacin-induced efflux pump expression in Streptococcus pneumoniae Spn-058 after 5 hrs by ethidium bromide uptake assay
[38] = test system: Streptococcus pneumoniae; test: Induction of efflux pump expression in Streptococcus pneumoniae Spn-RC2 after 5 hrs by ethidium bromide uptake assay
[39] = test system: Streptococcus pneumoniae; test: Inhibition of efflux pump in ciprofloxacin pretreated Streptococcus pneumoniae Spn-RC2 at 20 ug/ml by ethidium bromide uptake assay
[40] = test system: Streptococcus pneumoniae; test: Antimicrobial activity against Streptococcus pneumoniae Spn-058 at 5.5 to 8 log10 CFU/ml bacterial density measured within 24 hrs; type: functional, organism-based
[41] = test system: Streptococcus pneumoniae; test: Inhibition of efflux pump in Streptococcus pneumoniae Spn-058 assessed as reduction in ciprofloxacin MIC by broth microdilution method
[42] = test system: Streptococcus pneumoniae; test: Inhibition of efflux pump in Streptococcus pneumoniae Spn-058 assessed as reduction in levofloxacin MIC by broth microdilution method
[43] = test system: Streptococcus pneumoniae; test: Inhibition of efflux pump in Streptococcus pneumoniae Spn-058 assessed as reduction in ciprofloxacin MIC by agar dilution method
[44] = test system: Streptococcus pneumoniae; test: Inhibition of efflux pump in Streptococcus pneumoniae Spn-058 assessed as reduction in levofloxacin MIC by agar dilution method

Question: Which Activity [1] does the source give for `C[C@H]1COc2c(N3CCN(C)CC3)c(F)cc3c(=O)c(C(=O)O)cn1c23.C[C@H]1COc2c(N3CCN(C)CC3)c(F)cc3c(=O)c(C(=O)O)cn1c23.O` [LEVOFLOXACIN] here?
Answer: Active

Question: What about the Activity [2] of the same molecule?
Answer: Active

Question: What about the Activity [3] of the same molecule?
Answer: inactive

Question: And the Activity [4]?
Answer: Active

Question: And the half-life [5]?
Answer: 20 h

Question: And the MBC [6]?
Answer: 1 µg/mL

Question: What about the fAUC [7] of the same molecule?
Answer: 36000 ng·h/mL

Question: What about the half-life [8] of the same molecule?
Answer: 7 h

Question: And the Activity [9]?
Answer: Active

Question: Which results are given for `O=C(O)c1cn(C2CC2)c2cc(N3CCNCC3)c(F)cc2c1=O` [CIPROFLOXACIN]?
Answer: Activity [10]: Active; Activity [11]: inactive; Activity [4]: Active; Activity [12]: Active; MBC [6]: 1 µg/mL; MIC [6]: 1 µg/mL; MIC [13]: 2 µg/mL (≈ 6.04 µM)

Question: Which results are given for `COC(=O)[C@H]1[C@H]2C[C@@H]3c4[nH]c5cc(OC)ccc5c4CCN3C[C@H]2C[C@@H](OC(=O)c2cc(OC)c(OC)c(OC)c2)[C@@H]1OC`?
Answer: Activity [14]: Active; Activity [15]: Active; Activity [16]: Active; Activity [17]: Active; Activity [18]: inactive; Activity [19]: Active; Activity [20]: Active; Activity [21]: Active; Activity [22]: Active; Activity [23]: Active; Activity [24]: Active; Activity [25]: Active; Activity [26]: Active; Activity [27]: inactive; Activity [28]: inactive; Activity [29]: Active; Activity [30]: Active; Activity [31]: Active; Activity [32]: Active; Activity [33]: Active; Activity [34]: Active; Activity [35]: Active; Activity [12]: Active; Activity [36]: inactive; Activity [37]: Active; Activity [38]: Active; Activity [39]: Active; Activity [40]: Active; Activity [41]: Active; Activity [42]: Active; Activity [43]: Active; Activity [44]: Active

— ChEMBL document CHEMBL1153545 (Antimicrob Agents Chemother, 2007)
